# Source: US20040005537A1, “Method of identifying toxic agents using differential gene expression” (priority 2000, published 2004)
# Tested on: rat heart tissue
# Assay: GENECALLING differential gene expression analysis after dosing of serotonin modulating agents
# Assay type: in vivo, Sprague Dawley rats
# Protocol: Control animals received sterile water or canola oil. The animals were sacrificed 24 hours following the last dose. Liver tissue was dissected from the animals, and total RNA was recovered from the dissected tissue. cDNA was prepared and the resulting samples were processed through using GENECALLING™ differential expression analysis as described in U.S. Pat. No. 5,871,697 and in Shimkets et al., Nature Biotechnology 17:798-803 (1999). The contents of these patents and publications are incorporated herein by reference in their entirety.
# Thousands of gene fragments were initially found to be differentially expressed in rat heart tissue in response to serotonin modulating agents in. Genes fragments whose expression levels were modulated greater than ±1.5-fold were selected for further analysis.
# Column 6 of Table 1, entitled “Function”, lists the type of classification assigned for the protein, based on its function. The 210 single nucleic acid sequences identified herein, are referred to herein as CARDIOTOX 1-210.
smiles,measurement,setting,value
CNCCC(Oc1ccc(C(F)(F)F)cc1)c1ccccc1 (stereo not drawn) [fluoxetine],"Effects on Transcription Level: Novel gene fragment, 524 bp, 86% SI to mouse F-box protein FBX6b [AF176526]",CARDIOTOX 1,+1.3 fold
same,"Effects on Transcription Level: Novel gene fragment, 306 bp, 91% SI to mouse low density lipoprotein receptor related protein 4 [AB013874]",CARDIOTOX 2,−1.3 fold
same,"Effects on Transcription Level: Novel gene fragment, 540 bp, 97% SI to mouse skeletal muscle alpha-actin [X03766]",CARDIOTOX 3,−1.2 fold
same,"Effects on Transcription Level: Novel gene fragment, 80 bp",CARDIOTOX 4,−1.3 fold
same,"Effects on Transcription Level: Novel gene fragment, 957 bp, 99% SI to kidney injury associated moleculer HW036 [V80591]",CARDIOTOX 5,−1.4 fold
same,"Effects on Transcription Level: Novel gene fragment, 282 bp, 85% SI to human KIAA1515 protein [AB040948]",CARDIOTOX 6,−1.2 fold
same,"Effects on Transcription Level: Novel gene fragment, 405 bp, 88% SI to human 2-oxoglutarate dehydrogenase [D10523]",CARDIOTOX 7,+1.2 fold
same,Effects on Transcription Level: UCP2,"CARDIOTOX 8, GenBank AB010743",−1.3 fold
same,Effects on Transcription Level: Plasma membrane Ca2 + ATPase-isoform 1,"CARDIOTOX 9, GenBank J03753",−1.1 fold
same,"Effects on Transcription Level: Novel gene fragment, 242 bp, 97% SI to mouse HSP86 heat-shock protein [X16857]",CARDIOTOX 10,+1.4 fold
same,"Effects on Transcription Level: Novel gene fragment, 280 bp, 65% SI to human TRF1-interacting, ankyrin-related ADP-ribose polymerase [AF082556]",CARDIOTOX 11,+1.3 fold
same,"Effects on Transcription Level: Novel gene fragment, 348 bp, 88% SI to mouse Sec61 protein complex gamma subunit [U11027]",CARDIOTOX 12,+1.2 fold
same,"Effects on Transcription Level: Novel gene fragment 553 bp, 93% SI to mouse Sid329 [AB024984]",CARDIOTOX 13,+1.1 fold
same,Effects on Transcription Level: Kruppel-like transcription factor,"CARDIOTOX 14, GenBank AB020759",+1.3 fold
same,Effects on Transcription Level: Ribosomal protein L3,"CARDIOTOX 15, GenBank X62166",+1.1 fold
same,Effects on Transcription Level: Glucose-regulated protein (GRP) 75,"CARDIOTOX 16, GenBank S78556",+1.3 fold
same,Effects on Transcription Level: Immunoglobulin heavy chain binding protein (BiP),"CARDIOTOX 17, GenBank M14050",+1.4 fold
same,Effects on Transcription Level: Membrane-spannining proteoglycan NG2,"CARDIOTOX 18, GenBank X56541",−1.2 fold
same,"Effects on Transcription Level: Novel gene fragment, 1294 bp, 96% SI to mouse Sui 1 (elF) homolog [AF129888]",CARDIOTOX 19,+1.1 fold
same,"Effects on Transcription Level: Novel gene fragment, 723 bp, 85% SI to human translation initiation factor elF3 p40 subunit [U54559]",CARDIOTOX 20,+1.0 fold
same,"Effects on Transcription Level: Novel gene fragment, 1324 bp, 76% SI to human flavoprotein subunit of complex II [D30648]",CARDIOTOX 21,+1.3 fold
same,"Effects on Transcription Level: Novel gene fragment, 852 bp, 81% SI to human vacuolar proton-ATPase subunit M9.2 [Y15286]",CARDIOTOX 22,+1.2 fold
same,"Effects on Transcription Level: Novel gene fragment, 178 bp, 91% SI to mouse myosin light chain-2 isoform MLC-2a [S70785]",CARDIOTOX 23,+1.3 fold
same,"Effects on Transcription Level: Novel gene fragment, 167 bp, 90% SI to mouse Rab20 [X80332]",CARDIOTOX 24,−1.2 fold
same,"Effects on Transcription Level: Novel gene fragment, 1070 bp, 80% SI to human muscle-specific protein [AF249873]",CARDIOTOX 25,+1.3 fold
same,"Effects on Transcription Level: Novel gene fragment, 1143 bp, 82% SI to human sarcoma amplified sequence (SAS) [U01160]",CARDIOTOX 26,+1.2 fold
same,"Effects on Transcription Level: Novel gene fragment, 74 bp,75% SI to human secreted protein [X30160] (from patent database)/[X97578] (from patent database)/potential cytokine)",CARDIOTOX 27,+1.2 fold
same,"Effects on Transcription Level: Novel gene fragment, 408 bp, 90% SI to human CGI-07 protein [AF132941]",CARDIOTOX 28,+1.2 fold
same,"Effects on Transcription Level: Novel gene fragment, 618 bp, 95% SI to rat progression related cDNA, ZNPE-120 3′ end partial sequence [patent database X90805]",CARDIOTOX 29,+1.4 fold
same,"Effects on Transcription Level: Novel gene fragment, 717 bp",CARDIOTOX 30,+1.2 fold
same,"Effects on Transcription Level: Novel gene fragment, 546 bp",CARDIOTOX 31,+1.1 fold
same,"Effects on Transcription Level: Novel gene fragment, 920 bp, 91% SI to human HSPC061 [AF161546]",CARDIOTOX 32,+1.4 fold
same,"Effects on Transcription Level: Novel gene fragment, 203 bp, 92% SI to rabbit sarcoplasmic reticulum glycoprotein [J04480]",CARDIOTOX 33,−1.4 fold
same,"Effects on Transcription Level: Novel gene fragment, 178 bp, 68% SI to mouse IgG receptor (beta-Fc-gamma-RII)[M63159]",CARDIOTOX 34,+1.3 fold
same,Effects on Transcription Level: Ribosomal protein L6,"CARDIOTOX 35, GenBank X87107",+1.2 fold
same,Effects on Transcription Level: CAP2 protein (adenylyl cyclase-associated protein 2),"CARDIOTOX 36, GenBank U31935",+1.4 fold
same,Effects on Transcription Level: Alpha-platelet-derived growth factor receptor,"CARDIOTOX 37, GenBank M63837",+1.3 fold
same,Effects on Transcription Level: Rab GD1 alpha protein,"CARDIOTOX 38, GenBank X74402",−1.3 fold
same,Effects on Transcription Level: PKC-zeta-interacting protein,"CARDIOTOX 39, GenBank Y08355",+1.1 fold
same,Effects on Transcription Level: ERK or MAP kinase,"CARDIOTOX 40, GenBank X65198",+1.3 fold
same,Effects on Transcription Level: Peroxisomal multifunctional enzyme type II,"CARDIOTOX 41, GenBank U37486",+1.3 fold
same,Effects on Transcription Level: HBP23 (heme-binding protein 23 kDa),"CARDIOTOX 42, GenBank D30035",+1.3 fold
same,Effects on Transcription Level: Caveolae-associated protein,"CARDIOTOX 43, GenBank U90725",+1.3 fold
same,Effects on Transcription Level: Prenylated rab acceptor 1 (PRA1),"CARDIOTOX 44, GenBank AF025506",+1.2 fold
same,"Effects on Transcription Level: Novel gene fragment, 337 bp, 88% SI to rabbit cardiac ryanodine receptor (RyR-2)[U50465]",CARDIOTOX 45,+1.3 fold
same,"Effects on Transcription Level: Novel gene fragment, 81 bp, 85% SI to human titin [X90568]",CARDIOTOX 46,−1.1 fold
same,"Effects on Transcription Level: Novel gene fragment, 428 bp, 86% SI to human titin [X90568]",CARDIOTOX 47,+1.1 fold
same,"Effects on Transcription Level: Novel gene fragment, 374 bp, 88% SI to human titin [X90568]",CARDIOTOX 48,+1.1 fold
same,"Effects on Transcription Level: Novel gene fragment, 428 bp, 85% SI to human titin [90568]",CARDIOTOX 49,−1.3 fold
same,"Effects on Transcription Level: Novel gene fragment, 1216 bp, 93% SI to mouse mircotubule-associated protein (MAP) 1B protein [AF115776]",CARDIOTOX 50,−1.2 fold
same,"Effects on Transcription Level: Novel gene fragment, 1115 bp, 83% SI to human KIAA0549 protein [AB011121]",CARDIOTOX 51,−1.4 fold
same,"Effects on Transcription Level: Novel gene fragment, 153 bp",CARDIOTOX 52,−1.4 fold
same,"Effects on Transcription Level: Novel gene fragment, 89 bp, 93% SI to human putative glialblastoma cell differentiation-related protein (GBDR1) [AF068195]",CARDIOTOX 53,−1.0 fold
same,Effects on Transcription Level: Rho-associated kinase beta,"CARDIOTOX 54, GenBank U61266",−1.2 fold
same,Effects on Transcription Level: Adenylate kinase 3,"CARDIOTOX 55, GenBank D13062",+1.3 fold
same,Effects on Transcription Level: Amyloid beta-peptide binding protein,"CARDIOTOX 56, GenBank AF049878",+1.3 fold
same,Effects on Transcription Level: Mitochondrial adenine nuleotide translocator,"CARDIOTOX 57, GenBank D12771",+1.4 fold
same,"Effects on Transcription Level: Novel gene fragment, 710 bp, 94% SI to mouse chromatin structural protein homolog Supt5 hp (Supt5 h)[U88539]",CARDIOTOX 58,+2.8 fold
same,"Effects on Transcription Level: Novel gene fragment, 186 bp, 66% SI to human N-acetylglucosaminyltransferase 1 (GlcNAc-TI)[M55621]",CARDIOTOX 60,−2.7 fold
same,"Effects on Transcription Level: Novel gene fragment, 238 bp, 95% SI to mouse MAP kinase-activated protein kinase 2 [X76850]",CARDIOTOX 61,−1.7 fold
same,"Effects on Transcription Level: Novel gene fragment, 173 bp, 70% SI to G protein-coupled receptor kinase GRK4 [X97568]",CARDIOTOX 62,−4.7 fold
same,"Effects on Transcription Level: Novel gene fragment, 133 bp, 77% SI to human apoptosis related protein hSARP3 [patent database: V19114]",CARDIOTOX 63,−2.6 fold
same,"Effects on Transcription Level: Novel gene fragment, 477 bp, 98% SI to peroxisomal phytanoyl-CoA hydroxylase (PHYH) [AF121345]",CARDIOTOX 64,+3.7 fold
same,"Effects on Transcription Level: Novel gene fragment, 413 bp, 95% SI to mouse dihydrolipoamide dehydrogenase (Dld) [U73445]",CARDIOTOX 65,+2.0 fold
same,"Effects on Transcription Level: Novel gene fragment, 726 bp, 76% SI to human succinate dehydrogenase flavoprotein subunit (SDH) [L21936]",CARDIOTOX 66,−4.4 fold
same,"Effects on Transcription Level: Novel gene fragment, 440 bp, 92% SI to mouse cytochrome c oxidase Vllc [X52940]",CARDIOTOX 67,+2.1 fold
same,"Effects on Transcription Level: Novel gene fragment, 276 bp, 80% SI to human titin [X90568]",CARDIOTOX 68,−11.0 fold
same,"Effects on Transcription Level: Novel gene fragment, 149 bp, 70% SI to human titin [X90568]",CARDIOTOX 69,−3.7 fold
same,"Effects on Transcription Level: Novel gene fragment, 467 bp, 94% SI to mouse gelsolin [J04953]",CARDIOTOX 70,−3.8 fold
